These results are taken from patent US20110237566A1, “Therapeutic Macrolide Compounds and Their Use” (MERLION PHARMACEUTICALS PTE LTD, priority 2008, published 2011).

Usually IC50 stands for the concentration needed to halve the response being measured.

SMILES strings stand for the structures. Where only a bound is given, the exact number is not on record here.

Series [1] has as its system PC3 human prostate carcinoma cell. In words: Growth inhibition (cytotoxicity), PC3A assay, Cell Titer Glo. In kind it is cell-based. The note with it: PC-3, 72 h, PC3 cells, 72 hour incubation. The protocol: (§1) The cytotoxicity of each of the MC compounds as described herein was evaluated in the following cell types: A549 human alveolar epithelial cell, PC3 human prostate carcinoma cell, COLO205 human colon adenocarcinoma cell, HEPG2 human hepatoma, OVCAR3 human ovary adenocarcinoma cell, and HL60 human acute myelocytic leukemia (AML) cell.
(§2) A549, PC3, COLO205 and HEPG2 cells were cultured in DMEM (Invitrogen Corporation) with 10% fetal bovine serum, whereas OVCAR3 and HL60 were cultured in the same medium but with 20% fetal bovine serum. For cytotoxocoty measurements the cells were seeded in 96 or 384 well tissue culture treated microtitre plates overnight. Compounds were diluted in appropriate buffers and added to the cells the next day. Following a further 72 hour incubation, cell viability was determined using Cell Titer Glo (Promega Corporation) according to the manufacturers' instructions, and the luminescence measured in Luminoskan Ascent (Thermo Fisher Scientific Inc.).
In general terms: In ATP-based viability assays light output follows the ATP content of the culture.

The nature of series [2]: Microsomal stability assay. Format: in vitro ADME. As to conditions: human, human liver microsomes, pH 7.4, human liver microsomes, 50 μm, 37° C.; read-out: T1/2, 50 μm microsomal stability assay. The protocol:
50 μL test sample (50 mM), 25 μL human liver microsomes (20 mg/ml, BD Gentest, catalog no. 452161), 281 μL potassium phosphate buffer (100 mM, pH 7.4), 5 μL NaDPH regenerating system, solution B (BD Biosciences, catalog no. 451200), and 114 μL of water were pre-incubated for 5 min at 37° C. The reaction was initiated by the addition of 25 μL NaDPH regenerating system, solution A (BD Biosciences, catalog no. 451220). After an incubation period of 0, 15, 30, and 60 min at 37° C., 100 μL of the reaction mixture was transferred to an eppendorf tube, followed by addition of 100 μL chilled acetonitrile to quench the reaction. The sample was then centrifuged at 14,000 rpm for 5 min. The supernatant was submitted for LCMS analysis.
Background: Liver microsomes are vesicles of endoplasmic reticulum, rich in cytochrome P450 enzymes.

Series [3] relates to OVCAR3 human ovary adenocarcinoma cell. Briefly: Growth inhibition (cytotoxicity), OVCAR3 assay, Cell Titer Glo. In kind it is cell-based. The note with it: OVCAR3 cells, 72 hour incubation. On the procedure: as §1, §2
Series [4] concerns HL60 human acute myelocytic leukemia (AML) cell. In words: Growth inhibition (cytotoxicity), HL60A assay, Cell Titer Glo. Format: cell-based. The note with it: HL-60, 72 h, HL60 cells, 72 hour incubation. On the procedure: as §1, §2
In series [5] the test system is COLO205 human colon adenocarcinoma cell. Briefly: Growth inhibition (cytotoxicity), COLO205 assay, Cell Titer Glo. In kind it is cell-based. The note with it: COLO 205, 72 h, COLO205 cells, 72 hour incubation. On the procedure:
as §1, §2

The test system of series [6] is A549 human alveolar epithelial cell. In words: Growth inhibition (cytotoxicity), A549 assay, Cell Titer Glo. Format: cell-based. As to conditions: A549, 72 h, A549 cells, 72 hour incubation. On the procedure:
as §1, §2

Series [7] relates to HEPG2 human hepatoma. Briefly: Growth inhibition (cytotoxicity), HEPG2A assay, Cell Titer Glo. In kind it is cell-based. The note with it: HEPG2 cells, 72 hour incubation. The protocol: as §1, §2
Series [8] can be described thus: Stability determination at PBS pH7.2. In kind it is physicochemical. The note with it: PBS pH 7.2, pH 7.2, PBS pH7.2, 37° C.; read-out: T1/2, PBS buffer stability assay. The protocol:
Around 0.1 mg of the dried sample was placed in a 2-mL vial, added with 1 mL of PBS pH7.2 and then mixed using a Vortex mixer. The mixture was filtered through a 4 mm Nylon filter with 0.2 μm pore size and the filtrate collected in an hplc vial. The vial was placed in an hplc autosampler maintained at 37° C. just before injection (time=0 h). The stability of the sample was calculated by determining the amount left in solution at specific time intervals. This study was carried out in three trials with the buffer solution as a blank.

`CC[C@H](OC)[C@@H](C)[C@H]1O[C@@H]1C(NCc1ccc(F)cc1)C(C)(O)/C=C/C=C(\C)C1OC(=O)C[C@H](O)CC[C@@](C)(O)[C@@H](OC(C)=O)/C=C/[C@@H]1C.O=CO` (single isomer, unassigned) [MC-006c]: the IC50 in series [1] was at most 100 nM; in series [3] (Homo sapiens, OVCAR-3, 72 h) it was at most 100 nM; in series [4], at most 100 nM; in series [5], at most 100 nM. Besides, in series [2], the half-life at 50 μM was over 30 min.
For `CC[C@H](OC)[C@@H](C)[C@H]1O[C@@H]1C(NCc1ccncc1)C(C)(O)/C=C/C=C(\C)C1OC(=O)C[C@H](O)CC[C@@](C)(O)[C@@H](OC(C)=O)/C=C/[C@@H]1C` (single isomer, unassigned) [MC-007b], the IC50 in series [6] was at most 1000 nM; in series [4], at most 100 nM.
For the compound `CC[C@H](OC)[C@@H](C)[C@H]1O[C@@H]1C(NCc1ccc(Cl)cc1)C(C)(O)/C=C/C=C(\C)C1OC(=O)C[C@H](O)CC[C@@](C)(O)[C@@H](OC(C)=O)/C=C/[C@@H]1C` (single isomer, unassigned) [MC-016a], the IC50 in series [1] is at most 100 nM; in series [3] (Homo sapiens, OVCAR-3, 72 h), at most 100 nM; in series [4], at most 100 nM; in series [5], at most 100 nM; in series [7] (Homo sapiens, HepG2, 72 h) it was at most 100 nM.
Turning to `CC[C@H](OC)[C@@H](C)[C@H]1O[C@@H]1C(NCc1ccc(C)c(F)c1)C(C)(O)/C=C/C=C(\C)[C@H]1OC(=O)C[C@H](O)CC[C@@](C)(O)[C@@H](OC(C)=O)/C=C/[C@@H]1C.O=CO` (stereo in doubt) [MC-031], the IC50 in series [1] is at most 100 nM; in series [3] (Homo sapiens, OVCAR-3, 72 h), at most 100 nM. The half-life at 0.1 mg/mL in series [8] is over 30 min. Moreover, the half-life at 50 μM in series [2] is over 30 min.
On to `CC[C@H](OC)[C@@H](C)[C@H]1O[C@@H]1C(NCc1ccc(OC)cc1)C(C)(O)/C=C/C=C(\C)C1OC(=O)C[C@H](O)CC[C@@](C)(O)[C@@H](OC(C)=O)/C=C/[C@@H]1C` (stereo partly shown) [MC-005], for which the half-life at 50 μM in series [2] amounted to 20 min. For the same compound, the IC50 in series [3] (Homo sapiens, OVCAR-3, 72 h) is at most 100 nM; in series [3], 61 nM; in series [7], 57 nM; in series [7] (Homo sapiens, HepG2, 72 h), at most 100 nM.
Consider `CC[C@H](OC)[C@@H](C)[C@H]1O[C@@H]1C(NCc1ccncc1)C(C)(O)/C=C/C=C(\C)C1OC(=O)C[C@H](O)CC[C@@](C)(O)[C@@H](OC(C)=O)/C=C/[C@@H]1C` (stereo partly shown) [MC-007c], for which the IC50 in series [6] was at most 1000 nM; in series [4] it was at most 100 nM; in series [5], at most 100 nM.
Take `CC[C@H](OC)[C@@H](C)[C@H]1O[C@@H]1C(NCc1ccc(Cl)c(Cl)c1)C(C)(O)/C=C/C=C(\C)C1OC(=O)C[C@H](O)CC[C@@](C)(O)[C@@H](OC(C)=O)/C=C/[C@@H]1C` (stereo partly shown) [MC-059]: the IC50 in series [1] is at most 100 nM; in series [3] (Homo sapiens, OVCAR-3, 72 h) it was at most 100 nM; in series [5] it was at most 100 nM; in series [7] (Homo sapiens, HepG2, 72 h), at most 100 nM.
